{"source": "paper PMC9722750", "about": "“Antibacterial and β-amyloid precursor protein-cleaving enzyme 1 inhibitory polyketides from the fungus Aspergillus chevalieri” (Frontiers in Microbiology, 2022)", "key": {"[1]": {"system": "methicillin-resistant S. aureus (MRSA)", "assay": "Antibacterial assay", "format": "cell-based, Staphylococcus aureus", "conditions": "for inhibition at 200 µM: read-out: Inhibition rate against Methicillin-resistant Staphylococcus aureus", "experimental": "(§1) In this study, the tested bacteria strains, Escherichia coli ATCC25922, Staphylococcus aureus subsp. aureus ATCC29213, Salmonella enterica subsp. enterica ATCC14028, Pseudomonas aeruginosa ATCC27853, methicillin-resistant S. aureus (MRSA) were purchased from China General Microbiological Culture Collection Center (CGMCC). All the strains were cultured in Mueller-Hinton broth (Oxoid, Thermo Fisher Scientific) at 37°C with shaking at 200 rpm overnight. Each culture was diluted 40-fold in fresh MHB broth and incubated at 37°C with shaking (200 rpm) for another 2–3 h. The mid-log phase cultures were diluted to a concentration of 5 × 10^5 CFU/mL by McFarland Standards, which was used as seeding solution for following antibacterial assays. Each well of the compound-containing 96-well plates was seeded with 100 μL of aforementioned seeding solution, giving a final compound concentration 200 μM. Plates were covered and incubated at 37°C for 24 h. The inhibitory rates were calculated by [(1-OD625sample)/OD625negative control] × 100%. Penicillin G sodium and ceftazidime were used as positive controls (inhibitory rates >99%) ([Zhao Z.-Z. et al., 2018]). Compounds were first tested for their potential against five bacterial strains at a single concentration of 200 μM. If the inhibitory rate above 50%, different concentrations of the compounds were further evaluated for the antibacterial ability."}, "[2]": {"system": "Salmonella enterica subsp. enterica ATCC14028", "assay": "Antibacterial assay", "format": "cell-based", "conditions": "for inhibition at 200 µM: Salmonella enterica, ATCC14028, 24 h, read-out: Inhibition rate against Salmonella enterica subsp. enterica", "experimental": "as §1"}, "[3]": {"system": "Escherichia coli ATCC25922", "assay": "Antibacterial assay", "format": "cell-based", "experimental": "as §1"}, "[4]": {"system": "Staphylococcus aureus subsp. aureus ATCC29213", "assay": "Antibacterial assay", "format": "cell-based", "conditions": "200 μM, 24 h", "experimental": "as §1"}, "[5]": {"system": "Pseudomonas aeruginosa ATCC27853", "assay": "Antibacterial assay", "format": "cell-based", "conditions": "for inhibition at 200 µM: Pseudomonas aeruginosa, ATCC27853, read-out: Inhibition rate against Pseudomonas aeruginosa", "experimental": "as §1"}, "[6]": {"biological_target": "β-amyloid precursor protein-cleaving enzyme 1 (β-secretase, BACE1) (Homo sapiens, UniProt P56817)", "sequence (P56817 22-501 limits assumed)": "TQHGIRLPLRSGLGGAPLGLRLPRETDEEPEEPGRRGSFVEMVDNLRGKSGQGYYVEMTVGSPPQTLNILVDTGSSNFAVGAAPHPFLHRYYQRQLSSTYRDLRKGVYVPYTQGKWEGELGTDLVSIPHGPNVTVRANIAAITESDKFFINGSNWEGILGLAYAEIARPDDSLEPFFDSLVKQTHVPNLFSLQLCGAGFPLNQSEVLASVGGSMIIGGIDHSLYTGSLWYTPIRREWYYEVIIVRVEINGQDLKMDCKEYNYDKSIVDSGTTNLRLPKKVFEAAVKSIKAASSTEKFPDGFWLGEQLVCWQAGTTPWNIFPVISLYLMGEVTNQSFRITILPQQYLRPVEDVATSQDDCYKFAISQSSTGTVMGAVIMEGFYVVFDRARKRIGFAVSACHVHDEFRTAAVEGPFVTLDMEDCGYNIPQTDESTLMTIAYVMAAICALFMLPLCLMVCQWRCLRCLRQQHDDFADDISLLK", "assay": "BACE1 FRET assay", "format": "biochemical", "conditions": "3 h at room temperature, read-out: IC50 BACE1 inhibition", "experimental": "β-amyloid precursor protein-cleaving enzyme 1 (β-secretase, BACE1) assays were performed according to the literature ([Qi et al., 2018]; [Yatsu et al., 2019]). First, 10 μL of the test sample, 10 μL of the 722 nM BACE1 substrate (Rh-[…]-Quencher in 50 mM ammonium bicarbonate), and 10 μL of the BACE1 enzyme (1 U/mL) were mixed in black 384-well plates and incubated for 3 h at room temperature. The fluorescence intensity was measured at 540 nm excitation and 590 nm emission using a microplate reader (Tecan Spark 10M, TECAN, Männedorf, Switzerland) at the time points of 1 h and 3 h. The BACE1 inhibition rate was calculated by the following equation: BACE1 inhibition rate (%) = {1–[(S–S0)–(B–B0)/(C–C0)–(B–B0)]} × 100, where C is the fluorescence of a DMSO control (enzyme, substrate, and assay buffer with DMSO) after 3 h of incubation, C0 is the fluorescence of the DMSO control at 1 h after incubation, B is the fluorescence of a non-enzyme control (substrate and assay buffer with DMSO) after 3 h of incubation, B0 is the fluorescence of the non-enzyme control at 1 h after incubation, S is the fluorescence of the tested samples (enzyme, sample solution, and substrate) after 3 h of incubation, and S0 is the fluorescence of the tested samples at 1 h after incubation. The IC50 values were calculated by GraphPad Prism software (v5.02, CA, USA)."}, "[7]": {"assay": "in vitro", "format": "cell-based", "conditions": "human", "method": "The human lung cancer cell line A549 used in this study was purchased from Conservation Genetics CAS Kunming Cell Bank. The cells were cultured in high-glucose DMEM with 10% fetal bovine serum, 100 mg/mL streptomycin, 100 U/mL penicillin, and kept in an incubator at 37°C under an atmosphere of 5% CO2. The cell viability was assessed by 3-(4,5-dimethylthiazol-2-yl)-2,5-diphenyltetrazolium bromide (MTT) method. […] In brief, 100 μL of adherent cells was seeded to each well of a 96-well cell culture plate. The plate was kept for 12 h for adherence. […] However, suspended cells were seeded with the same density of 1 × 10^5 cells/mL every 100 μL of culture medium before adding the test compounds. Then the plate was incubated for another 48 h. After 48 h of incubation, 100 μg of MTT was added to each well, another 4 h of incubation was continued at 37°C. After removal of 100-μL culture medium, the cells were lysed with 20% SDS-50% DMF (100 μL). The remained lysates were subjected to measure the optical density value at 595 nm with a 96-well microtiter plate reader (Tecan Spark 10M, Switzerland). […] All the experiments were in triplicates. The IC50 value was calculated by a published method ([Chen et al., 2018])."}, "[8]": {"conditions": "Staphylococcus aureus, MRSA, 200 μM, 24 h"}}, "note": "Where a name gives a salt, the structure may show the parent alone.", "data": [{"compound": "1,4,5-trihydroxy-7-methoxy-2-methyl-anthraquinone [Compound 14]", "values": [{"measurement": "Inhibition rate against Methicillin-resistant Staphylococcus aureus", "setting": "[1]; 200 μM, 24 h", "result": 52.0, "unit": "%"}, {"measurement": "Inhibition rate against Salmonella enterica subsp. enterica", "setting": "[2]; 200 μM, 24 h", "result": "– (This symbol “–” represent no activity)"}, {"measurement": "Inhibition rate against Escherichia coli", "setting": "[3]; 200 μM, 24 h", "result": "– (This symbol “–” represent no activity)"}, {"measurement": "Inhibition rate against Staphylococcus aureus subsp. aureus", "setting": "[4]", "result": "– (This symbol “–” represent no activity)"}, {"measurement": "Inhibition rate against Pseudomonas aeruginosa", "setting": "[5]; 200 μM, 24 h", "result": 38.2, "unit": "%"}]}, {"compound": "CCCCCC1Cc2c(cc(CC=C(C)C)c(O)c2C(=O)O)O1", "note": "(racemic) [Compound 1, (±)-Chevalieric acid]", "values": [{"measurement": "IC50", "setting": "[6]", "result": 101, "unit": "µM"}]}, {"compound": "CC(C)(O/N=C(\\C(=O)N[C@@H]1C(=O)N2C(C(=O)[O-])=C(C[n+]3ccccc3)CS[C@H]12)c1csc(N)n1)C(=O)O", "note": "[Ceftazidime, ceftazidime, reference compound]", "values": [{"measurement": "inhibition at 200 µM", "setting": "[2]", "result": 99.3, "unit": "%"}, {"measurement": "inhibition at 200 µM", "setting": "[3]; Escherichia coli, ATCC25922, 24 h, read-out: Inhibition rate against Escherichia coli", "result": 99.8, "unit": "%"}]}, {"compound": "COc1cc(O)cc2c1C(=O)c1c(O)cc(C)cc1[C@@H]2[C@@H](C)CC(C)=O", "note": "[Compound 2, (10S,12S)-Chevalierone]", "values": [{"measurement": "inhibition at 200 µM", "setting": "[5]; 200 μM, 24 h", "result": 38.2, "unit": "%"}]}, {"compound": "COc1cc(O)cc2c1C(=O)c1c(O)cc(C)cc1[C@@H]2[C@H](C)CC(C)=O", "note": "[Compound 3, (10S,12R)-Chevalierone]", "values": [{"measurement": "antibacterial activity against MRSA (in words)", "setting": "[1]", "result": "significant antibacterial activities"}, {"measurement": "inhibition at 200 µM", "setting": "[1]; [8]", "result": 74.1, "unit": "%"}, {"measurement": "antibacterial activity against P. aeruginosa (in words)", "setting": "[5]", "result": "significant antibacterial activities"}, {"measurement": "inhibition at 200 µM", "setting": "[5]; 200 μM, 24 h", "result": 81.9, "unit": "%"}]}, {"compound": "COc1cc(O)cc2c1C(=O)c1c(O)cc(C)cc1[C@H]2[C@H](C)CC(C)=O", "note": "[Compound 4, (10R,12R)-Chevalierone]", "values": [{"measurement": "antibacterial activity against MRSA (in words)", "setting": "[1]", "result": "significant antibacterial activities"}, {"measurement": "inhibition at 200 µM", "setting": "[1]; [8]", "result": 85, "unit": "%"}, {"measurement": "antibacterial activity against P. aeruginosa (in words)", "setting": "[5]", "result": "significant antibacterial activities"}, {"measurement": "inhibition at 200 µM", "setting": "[5]; 200 μM, 24 h", "result": 81, "unit": "%"}]}, {"compound": "COc1cc(O)cc2c1C(=O)c1c(O)cc(C)cc1[C@H]2[C@@H](C)CC(C)=O", "note": "[Compound 5, (10R,12S)-Chevalierone]", "values": [{"measurement": "antibacterial activity against MRSA (in words)", "setting": "[1]", "result": "significant antibacterial activities"}, {"measurement": "inhibition at 200 µM", "setting": "[1]; [8]", "result": 88.5, "unit": "%"}, {"measurement": "MIC50", "setting": "[1]; Staphylococcus aureus, MRSA, read-out: MIC50 against MRSA", "result": 44, "unit": "µM"}, {"measurement": "antibacterial activity against P. aeruginosa (in words)", "setting": "[5]", "result": "significant antibacterial activities"}, {"measurement": "inhibition at 200 µM", "setting": "[5]; 200 μM, 24 h", "result": 91.5, "unit": "%"}]}, {"compound": "CCCCCCCc1c(O)cc2c(c1C=O)OC(C)(C)C=C2", "note": "[Compound 6, asperglaucin B]", "values": [{"measurement": "IC50", "setting": "[6]", "result": "> 100", "unit": "µM"}, {"measurement": "MIC", "setting": "[1]; Staphylococcus aureus, MRSA, read-out: MIC against MRSA", "result": 44, "unit": "µM"}]}, {"compound": "CCC/C=C/c1cc2c(C=O)c(O)c(CC=C(C)C)cc2o1", "note": "[Compound 7, 2-(2′,3-epoxy-1′,3′-heptadienyl)-6-hydroxy-5-(3-methyl-2-butenyl)benzaldehyde]", "values": [{"measurement": "IC50", "setting": "[6]", "result": "> 100", "unit": "µM"}]}, {"compound": "CCCCC/C=C/c1c(O)cc(CC=C(C)C)c(O)c1C=O", "note": "[Compound 8, tetrahydroauroglaucin]", "values": [{"measurement": "IC50", "setting": "[6]", "result": 36.1, "unit": "µM"}]}, {"compound": "CCC/C=C/C=C/c1c(O)cc(CC=C(C)C)c(O)c1C=O", "note": "[Compound 9, dihydroauroglaucin]", "values": [{"measurement": "IC50", "setting": "[6]", "result": "> 100", "unit": "µM"}]}, {"compound": "CCCCCCCc1c(O)cc(CC=C(C)C)c(O)c1C=O", "note": "[Compound 10, flavoglaucin]", "values": [{"measurement": "IC50", "setting": "[6]", "result": 40.9, "unit": "µM"}, {"measurement": "IC50 at 48 h", "setting": "[7]", "result": 39.7, "unit": "µM"}]}, {"compound": "C/C=C/C=C/CCc1c(O)cc(CC=C(C)C)c(O)c1C=O", "note": "[Compound 11, isodihydroauroglaucin]", "values": [{"measurement": "IC50", "setting": "[6]", "result": 34.9, "unit": "µM"}]}, {"compound": "CC(C)=CCc1cc2oc(=O)ccc2c(C=O)c1O", "note": "[Compound 12, cristaldehyde A]", "values": [{"measurement": "IC50", "setting": "[6]", "result": "> 100", "unit": "µM"}]}, {"compound": "CCC[C@@H](O)[C@@H]1C=Cc2c(cc(CC=C(C)C)c(O)c2C=O)O1", "note": "[Compound 13, (3′S,4′R)-6-(3′,5-epoxy-4′-hydroxy-1′-heptenyl)-2-hyd roxy-3-(3″-methyl-2″-butenyl)benzaldehyde]", "values": [{"measurement": "IC50", "setting": "[6]", "result": "> 100", "unit": "µM"}]}, {"compound": "COc1cc(O)c2c(c1)C(=O)c1cc(C)cc(O)c1C2=O", "note": "[Compound 15, physcion]", "values": [{"measurement": "inhibition at 200 µM", "setting": "[5]; 200 μM, 24 h", "result": 38, "unit": "%"}]}, {"compound": "CC1(C)S[C@@H]2[C@H](NC(=O)Cc3ccccc3)C(=O)N2[C@H]1C(=O)O", "note": "[Penicillin G sodium, Penicillin G sodium salt, reference compound]", "values": [{"measurement": "inhibition at 200 µM", "setting": "[1]; [8]", "result": 60.5, "unit": "%"}, {"measurement": "inhibition at 200 µM", "setting": "[2]", "result": 75.7, "unit": "%"}, {"measurement": "inhibition at 200 µM", "setting": "[5]; 200 μM, 24 h", "result": 99.9, "unit": "%"}]}]}
